According to paper PMC4284516 (Scientific Reports, 2015):

Key:
mice = details: cited from earlier work
MAGL over FAAH = details: cited from earlier work
Swiss mice = experiment: Novel object recognition task
NMRI mice = experiment: Y-maze test; type: in vivo; details: 1.5 mg/kg, i.p.
[1] = target: T1, human recombinant MAGL (rhMAGL) (Homo sapiens, UniProt Q99685); experiment: MAGL biochemical assay; details: read-out: IC50, rhMAGL; 4-nitrophenylacetate substrate; N = 3
T1 sequence (Q99685 1-303): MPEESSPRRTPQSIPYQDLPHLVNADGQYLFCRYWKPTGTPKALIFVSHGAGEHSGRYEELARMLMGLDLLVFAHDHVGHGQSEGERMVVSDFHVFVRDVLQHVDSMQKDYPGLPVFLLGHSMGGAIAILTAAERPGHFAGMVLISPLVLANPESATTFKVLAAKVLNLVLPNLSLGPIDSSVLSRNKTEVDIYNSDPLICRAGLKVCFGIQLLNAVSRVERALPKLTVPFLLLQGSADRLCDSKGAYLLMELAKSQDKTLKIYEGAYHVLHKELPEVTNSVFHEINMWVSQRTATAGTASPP

OF1 mice [2] = experiment: Mouse tetrad experiments; details: 15 mg/kg i.p.
OF1 mice [3] = experiment: Pentylenetetrazol; details: diazepam 3 mg/kg i.p.
OF1 mice [4] = experiment: Elevated plus-maze test; details: diazepam 3 mg/kg p.o., 60 min before testing
OF1 mice [5] = experiment: 6-Hz electroshock-induced seizures; type: in vivo; details: levetiracetam 20 mg/kg i.p.
rat hippocampal slices = experiment: [3H]ACh release evoked by electrical depolarisation in hippocampal slices; type: cell-based, Sprague-Dawley rats; details: rimonabant 10^−7 mol/L
[6] = tested on: PBQ-induced writhing in OF1 mice; experiment: Phenylbenzoquinone; type: in vivo; details: combined with SAR127303 3 mg/kg p.o.

In the case of O=C(Oc1ccc([N+](=O)[O-])cc1)N1CCC(C(O)(c2ccc3c(c2)OCO3)c2ccc3c(c2)OCO3)CC1 [JZL184], the “dose impairing MWM performance (dose that also inhibits FAAH)” value (mice) is listed as 40 mg/kg.
For O=C(OC(C(F)(F)F)C(F)(F)F)N1CCC(C(O)(c2ccc3c(c2)OCO3)c2ccc3c(c2)OCO3)CC1 [KML29], the “selectivity for MAGL over FAAH and most other serine hydrolases” value (MAGL over FAAH) is given as over 100 fold.
In the case of C[C@]12N[C@H](Cc3ccccc31)c1ccccc12 [MK-801], the “novelty index ratio versus control vehicle” value (Swiss mice; 0.125 mg/kg) is reported as “significantly reduced”.
For c1ccc(C2(N3CCCCC3)CCCCC2)cc1 [PCP], the “spontaneous alternation versus vehicle” value (NMRI mice) was “significant reduction”.
COc1ccc2c(C3COC(CCCNC(=O)OCC(N)=O)OC3)cccc2c1 (stereo not shown) [SSR411298] showed an IC50 [1] of over 10 µM.
In the case of Cc1c(C(=O)c2cccc3ccccc23)c2cccc3c2n1[C@H](CN1CCOCC1)CO3 [WIN55,512-2], the “antinociception in the tail-flick test” value (OF1 mice [2]) is reported as “significant antinociceptive”, the catalepsy (OF1 mice [2]) is reported as “cataleptic” and the “duration of antinociceptive, hypothermic and cataleptic effects” value (OF1 mice [2]) is reported as “at least 4 hours”. For the same compound, the hypothermia (OF1 mice [2]) was “hypothermic” and the locomotor activity (OF1 mice [2]) was “decreased significantly”.
With CN1C(=O)CN=C(c2ccccc2)c2cc(Cl)ccc21 [diazepam] the “protection in the PTZ test” value (OF1 mice [3]) was “full protection” and the “percentage of time in open arms” value (OF1 mice [4]) was “opposite effects”.
For CC[C@@H](C(N)=O)N1CCCC1=O [levetiracetam], the “protection in the 6-Hz test” value (OF1 mice [5]) was “full protection”.
With Cc1c(C(=O)NN2CCCCC2)nn(-c2ccc(Cl)cc2Cl)c1-c1ccc(Cl)cc1 [rimonabant] the “reversal of the effect of 2-AG at 10^−8 mol/L on [3H]-ACh release” value (rat hippocampal slices) was “completely reversed”, the “blockade of the anti-writhing effects of SAR127303” value [6] was “blocked” and the “novelty index ratio when coadministered with SAR127303” value (Swiss mice; rimonabant 3 mg/kg + SAR127303 1 mg/kg) was “significantly different from chance level”.
